Columns and labels:
Format in all cases: in vivo
Setaria faberi (SETFA) [1] = experiment: Pre-emergence herbicidal glasshouse test; details: 250 g/ha, sprayed after one day cultivation, evaluated after 13 days
Description: (§1) Seeds of a variety of test species are sown in standard soil in pots Amaranthus pa/meri (AMAPA), Amaranthus retoflexus (AMARE), Echinochloa crus-gali (ECHCG), Ipomoea hederacea (IPOHE), Setaria faberi (SETFA). After cultivation for one day (pre-emergence) or after 8 days cultivation (post-emergence) under controlled conditions in a glasshouse (at 24/16° C., day/night; 14 hours light; 65% humidity), the plants are sprayed with an aqueous spray solution derived from the formulation of the technical active ingredient in acetone/water (50:50) solution containing 0.5% Tween 20 (polyoxyethelyene sorbitan monolaurate, CAS RN 9005-64-5). Compounds are applied at 250 g/ha unless otherwise stated. The test plants are then grown in a glasshouse under controlled conditions in a glasshouse (at 24/16° C., day/night; 14 hours light; 65% humidity) and watered twice daily. After 13 days for pre and post-emergence, the test is evaluated for the percentage damage caused to the plant. The biological activities are shown in the following table on a five-point scale (5=81-100%; 4=61-80%; 3=41-60%; 2=21-40%; 1=0-20%).

[2] = test system: Amaranthus pa/meri (AMAPA); experiment: Pre-emergence herbicidal glasshouse test; details: 250 g/ha, sprayed after one day cultivation, evaluated after 13 days
Description: as §1

[3] = test system: Echinochloa crus-gali (ECHCG); experiment: Pre-emergence herbicidal glasshouse test; details: 250 g/ha, sprayed after one day cultivation, evaluated after 13 days
Description: as §1

[4] = test system: Amaranthus retoflexus (AMARE); experiment: Pre-emergence herbicidal glasshouse test; details: 250 g/ha, sprayed after one day cultivation, evaluated after 13 days
Description: as §1

[5] = test system: Ipomoea hederacea (IPOHE); experiment: Pre-emergence herbicidal glasshouse test; details: 250 g/ha, sprayed after one day cultivation, evaluated after 13 days
Description: as §1

Setaria faberi (SETFA) [6] = experiment: Post-emergence herbicidal glasshouse test; details: 250 g/ha, sprayed after 8 days cultivation, evaluated after 13 days
Description: as §1

[7] = test system: Amaranthus pa/meri (AMAPA); experiment: Post-emergence herbicidal glasshouse test; details: 250 g/ha, sprayed after 8 days cultivation, evaluated after 13 days
Description: as §1

[8] = test system: Echinochloa crus-gali (ECHCG); experiment: Post-emergence herbicidal glasshouse test; details: 250 g/ha, sprayed after 8 days cultivation, evaluated after 13 days
Description: as §1

[9] = test system: Amaranthus retoflexus (AMARE); experiment: Post-emergence herbicidal glasshouse test; details: 250 g/ha, sprayed after 8 days cultivation, evaluated after 13 days
Description: as §1

[10] = test system: Ipomoea hederacea (IPOHE); experiment: Post-emergence herbicidal glasshouse test; details: 250 g/ha, sprayed after 8 days cultivation, evaluated after 13 days
Description: as §1

SMILES | percentage damage caused to the plant, SETFA (Setaria faberi (SETFA) [1]) | percentage damage caused to the plant, AMAPA [2] | percentage damage caused to the plant, ECHCG [3] | percentage damage caused to the plant, AMARE [4] | percentage damage caused to the plant, IPOHE [5] | percentage damage caused to the plant, SETFA (Setaria faberi (SETFA) [6]) | percentage damage caused to the plant, AMAPA [7] | percentage damage caused to the plant, ECHCG [8] | percentage damage caused to the plant, AMARE [9] | percentage damage caused to the plant, IPOHE [10]
FC(F)(F)CCCc1nc(C(F)(F)F)cn1Cc1ncc(Cl)cn1 [Compound 1.025] | 5 (5=81-100%) | 5 (5=81-100%) | 5 (5=81-100%) | 5 (5=81-100%) | 5 (5=81-100%) | 5 (5=81-100%) | 5 (5=81-100%) | 5 (5=81-100%) | 5 (5=81-100%) | 4 (4=61-80%)
N#CC1(c2nc(C(F)(F)F)cn2Cc2ncc(Cl)cn2)CC1 [Compound 1.060] | 1 (1=0-20%) | 2 (2=21-40%) | 1 (1=0-20%) | 2 (2=21-40%) | 3 (3=41-60%) | 1 (1=0-20%) | 2 (2=21-40%) | 1 (1=0-20%) | 2 (2=21-40%) | 2 (2=21-40%)
N#Cc1cn(Cc2ncc(Cl)cn2)c(CC2CCOC2)n1 (stereo not shown) [Compound 1.073, 1-[(5-chloropyrimidin-2-yl)methyl]-2-(tetrahydrofuran-3-ylmethyl)imidazole-4-carbonitrile] | 1 (1=0-20%) | 2 (2=21-40%) | 1 (1=0-20%) | 2 (2=21-40%) | 2 (2=21-40%) | 1 (1=0-20%) | 2 (2=21-40%) | 1 (1=0-20%) | 2 (2=21-40%) | 3 (3=41-60%)
FC(F)COCc1nc(C(F)(F)F)cn1Cc1ncc(Cl)cn1 [Compound 1.022] | 1 (1=0-20%) | 2 (2=21-40%) | 1 (1=0-20%) | 3 (3=41-60%) | 4 (4=61-80%) | 1 (1=0-20%) | 3 (3=41-60%) | 1 (1=0-20%) | 3 (3=41-60%) | 3 (3=41-60%)
N#CC1(c2nc(C(F)(F)F)cn2Cc2ncc(Cl)cc2F)CC1 [Compound 1.069] | 1 (1=0-20%) | 4 (4=61-80%) | 1 (1=0-20%) | 5 (5=81-100%) | 4 (4=61-80%) | 1 (1=0-20%) | 4 (4=61-80%) | 1 (1=0-20%) | 4 (4=61-80%) | 4 (4=61-80%)
OCCCc1nc(C(F)(F)F)cn1Cc1ncc(Cl)cn1 [Compound 1.008, 3-[1-[(5-chloropyrimidin-2-yl)methyl]-4-(trifluoromethyl)imidazol-2-yl]propan-1-ol] | 1 (1=0-20%) | 1 (1=0-20%) | 2 (2=21-40%) | 1 (1=0-20%) | 1 (1=0-20%) | 1 (1=0-20%) | 1 (1=0-20%) | 1 (1=0-20%) | 1 (1=0-20%) | 1 (1=0-20%)
CC(C)(C#N)Cc1nc(C(F)(F)F)cn1Cc1ncc(Cl)cn1 [Compound 1.061] | 1 (1=0-20%) | 3 (3=41-60%) | 1 (1=0-20%) | 3 (3=41-60%) | 4 (4=61-80%) | 1 (1=0-20%) | 3 (3=41-60%) | 1 (1=0-20%) | 4 (4=61-80%) | 4 (4=61-80%)
COCc1nc(C(F)(F)F)cn1Cc1ncc(Cl)cn1 [Compound 1.023] | 1 (1=0-20%) | 2 (2=21-40%) | 1 (1=0-20%) | 2 (2=21-40%) | 1 (1=0-20%) | 1 (1=0-20%) | 1 (1=0-20%) | 1 (1=0-20%) | 1 (1=0-20%) | 2 (2=21-40%)
CCCCc1nc(C(F)(F)F)cn1Cc1ncc(Cl)cn1 [Compound 1.026] | 5 (5=81-100%) | 5 (5=81-100%) | 3 (3=41-60%) | 5 (5=81-100%) | 3 (3=41-60%) | 2 (2=21-40%) | 5 (5=81-100%) | 2 (2=21-40%) | 5 (5=81-100%) | 4 (4=61-80%)
FC(F)(F)CCc1nc(C(F)(F)F)cn1Cc1ncc(Cl)cn1 [Compound 1.002, 5-chloro-2-[[4-(trifluoromethyl)-2-(3,3,3-trifluoropropyl)imidazol-1-yl]methyl]pyrimidine] | 5 (5=81-100%) | 5 (5=81-100%) | 5 (5=81-100%) | 5 (5=81-100%) | 5 (5=81-100%) | 5 (5=81-100%) | 5 (5=81-100%) | 5 (5=81-100%) | 5 (5=81-100%) | 5 (5=81-100%)
C=CCCc1nc(C(F)(F)F)cn1Cc1ncc(Cl)cn1 [Compound 1.020, 2-[[2-but-3-enyl-4-(trifluoromethyl)imidazol-1-yl]methyl]-5-chloro-pyrimidine] | 4 (4=61-80%) | 5 (5=81-100%) | 5 (5=81-100%) | 5 (5=81-100%) | 4 (4=61-80%) | 1 (1=0-20%) | 2 (2=21-40%) | 2 (2=21-40%) | 3 (3=41-60%) | 2 (2=21-40%)
CCOCc1nc(C(F)(F)F)cn1Cc1ncc(Cl)cn1 [Compound 1.039] | 2 (2=21-40%) | 3 (3=41-60%) | 1 (1=0-20%) | 4 (4=61-80%) | 2 (2=21-40%) | 1 (1=0-20%) | 2 (2=21-40%) | 1 (1=0-20%) | 2 (2=21-40%) | 2 (2=21-40%)
FC(F)c1ccn(CCc2nc(C(F)(F)F)cn2Cc2ncc(Cl)cn2)n1 [Compound 1.032] | 5 (5=81-100%) | 5 (5=81-100%) | 5 (5=81-100%) | 5 (5=81-100%) | 5 (5=81-100%) | 3 (3=41-60%) | 4 (4=61-80%) | 3 (3=41-60%) | 5 (5=81-100%) | 4 (4=61-80%)
